Common to all, as to format: cell-based
The test system of assay [1] is Bacillus megaterium DSM 33296 cells. Nature of the assay: Lipidometabolomics of culture supernatants with AvailOm dispersion formulation. The note with it: Bacillus megaterium DSM 33296, AvailOm dispersion formulation; net concentration. The text has this: (§1) Bacterial supernatant samples were subjected to lipid extraction using RP-phase solid phase extraction and subsequently analyzed by ultra performance liquid chromatography ESI tandem mass spectrometry (UPLC-MS/MS) according to a published procedure. Under these conditions approximately 40 different LM, including 5-hydroxy-eicosapentaenoic acid 5-HEPE, 8-HEPE, 11-HEPE, 12-HEPE, 15-HEPE, 18-HEPE, 5-hydroxy-eicosatetraenoic acid (5-HETE), 8-HETE, 11-HETE, 12-HETE, 15-HETE, 4-hydroxy-DHA (4-HDHA), 7-HDHA, 13-HDHA, 14-HDHA, 17-HDHA, lipoxin A4 (LXA4), LXB4, resolvin E1 (RvE1), RvE3, resolvin D1-5 (RvD1-5), AT-RvD1, RvD2, protectin D1 (PD1), AT-PD1, maresin 1(MaR1), MaR2, plus 4 fatty acid substrates can be detected with a lower limit of detection of 1 pg.
(§2) 47 additional Bacillus megaterium strains sourced from various habitats were screened for their SPM production capacity to determine if this is a general phenomenon of the species Bacillus megaterium and to detect strain-specific differences in types and quantities of SPM being produced. Cells were cultured as detailed in example 4, with dispersion formulation of AvailOm® serving as omega-3 fatty acid source. Cell-free preparations of AvailOm® were treated and analyzed in parallel and served as controls for non-enzymatic, spontaneous formation of oxygenation products. It was observed that all tested strains produced measurable (>1 pg/ml) amounts of various SPM and precursors thereof, that these amounts were hugely different between the strains (up to 2.000 fold), and that concentrations of RvE3 were particularly high (up to 1.3 μg/ml) in most of the strains.
(§3) Values given in table 7 display net concentrations of PUFA oxygenation products formed by two of the top performing strains, Bacillus megaterium DSM 33296 and Bacillus megaterium DSM 33299.

Assay [2] deals with Bacillus megaterium DSM 33299 cells. Described as above. The note with it: Bacillus megaterium DSM 33299, AvailOm dispersion formulation; net concentration.
Source text: as §1, §2, §3

Assay [3] deals with Bacillus megaterium DSM 32963 cells. The assay can be described thus: Lipidometabolomics (UPLC-MS/MS) of culture supernatants with AvailOm, dissolved or as dispersion. The note with it: for Extracellular concentration of PUFA oxygenation product: − bile acids, net after subtraction of cell-free control.
Source text: as §1
To investigate if Bacillus megaterium is capable of producing other PUFA oxygenation products in addition to 18-HEPE, a lipidometabolomics screening of supernatants from Bacillus megaterium strain 32963 cultured as in example 4 with AvailOm® was performed, either dissolved or in a dispersion formulation, with or without bile acids. Cell-free preparations of AvailOm® formulations were treated and analyzed in parallel and served as controls for non-enzymatic, spontaneous formation of oxygenation products. Values given in table 6 display net concentrations of products formed, i.e. after subtraction of control values. […] Concentrations of several SPM exceed by far the concentrations of SPM found in human plasma samples, which are typically in a range of ˜20-100 pg/ml. For comparison, human breast milk contains ˜6.000 pg/ml RvE1 and ˜10.000 pg/ml RvD1 [42].

Take `CC/C=C\C/C=C\C[C@H](O)\C=C/C=C/C=C/[C@H](O)C/C=C\CCC(=O)O` [MaR1, maresin 1]: the “Extracellular concentration of PUFA oxygenation product” value (“Extracellular concentration” for short) in assay [1] was found to be 1161 pg/mL; in assay [2], 1576 pg/mL; in assay [3] (AvailOm dispersion), 145 pg/mL; in assay [3] (AvailOm), 114 pg/mL.
As to 9-hydroxyoctadecadienoic acid [9-HODE], in assay [3], the “abundance with dispersion formulation and/or bile acids compared to AvailOm without both (in words)” value is listed as “lower”. In addition, the “Extracellular concentration” value in assay [3] (AvailOm) is 43 pg/mL.
On to `CC/C=C\C[C@H](O)/C=C/C=C\C=C\C=C\[C@@H](O)[C@@H](O)CCCC(=O)O` [LXA5, lipoxin A5], for which the “Extracellular concentration” value in assay [1] was determined as 4693 pg/mL; in assay [2], 128825 pg/mL; in assay [3] (AvailOm dispersion) it was 41263 pg/mL; in assay [3] (AvailOm) it was 7767 pg/mL.
In the same order, the values of `CC/C=C\C[C@H](O)\C=C/C=C/C=C/[C@H](O)C/C=C\C/C=C\CCC(=O)O` [PD1 1, protectin D1] are 99029 pg/mL, 75342 pg/mL, 3841 pg/mL and 113 pg/mL.
With `CCCCC/C=C\C[C@@H](O)/C=C/C=C/C=C\[C@@H](O)CCCC(=O)O` [LTB4, leukotriene B4], the figures for the “Extracellular concentration” value in assay [1], in assay [2] and in assay [3] (AvailOm) were 1769 pg/mL, 2206 pg/mL and 171 pg/mL, respectively.
Consider `CC/C=C\C[C@H](O)/C=C/C=C\C[C@@H](O)/C=C/C=C/C=C\[C@@H](O)CCC(=O)O` [RvD3], for which the “Extracellular concentration” value in assay [1] was determined as 381 pg/mL; in assay [2] it was 941 pg/mL; in assay [3] (AvailOm dispersion), 8409 pg/mL; in assay [3] (AvailOm) it was 178 pg/mL.
In the case of `CCCCC[C@H](O)/C=C/C=C\C=C\C=C\[C@@H](O)[C@@H](O)CCCC(=O)O` [LXA4, lipoxin A4], the “Extracellular concentration” value was 1157 pg/mL in assay [1] and 1430 pg/mL in assay [2].
`CCCCC/C=C\C[C@@H](O)/C=C/C=C/C=C/[C@@H](O)CCCC(=O)O` [t-LTB4]: the “Extracellular concentration” value in assay [1] came out at 1780 pg/mL; in assay [2], 4181 pg/mL; in assay [3] (AvailOm dispersion), 667 pg/mL; in assay [3] (AvailOm) it was 360 pg/mL.
In the same order, the values of `CC/C=C\C[C@H](O)/C=C/C=C\C=C\[C@@H](O)C/C=C\C/C=C\CCC(=O)O` [PDX 1] are 78345 pg/mL, 138918 pg/mL, 19542 pg/mL and 109 pg/mL.
For `CCCCC[C@H](O)[C@H](O)/C=C/C=C/C=C\C=C\[C@@H](O)CCCC(=O)O` [LXB4, lipoxin B4], in assay [3] (AvailOm dispersion), the “Extracellular concentration” value is 76301 pg/mL.
For `CC/C=C\C/C=C\C/C=C\C/C=C\C=C\C(O)C/C=C\CCC(=O)O` (stereo not shown) [7-HDHA, 7-hydroxy-DHA], the figures for the “Extracellular concentration” value in assay [1] and in assay [2] were 202129 pg/mL and 243080 pg/mL, respectively.
Take “5-hydroxy-eicosatetraenoic acid [5-HETE]”: the “Extracellular concentration” value came to 15434 pg/mL in assay [1], 9356 pg/mL in assay [2] and 13 pg/mL in assay [3] (AvailOm). For the same compound, in assay [3], the “abundance with dispersion formulation and/or bile acids compared to AvailOm without both (in words)” value is “lower”.
Turning to `CC/C=C\C[C@@H](O)/C=C/C=C\C=C\C=C\[C@@H](O)[C@@H](O)C/C=C\CCC(=O)O` [AT-RvD1, Aspirin-triggered RvD1], the “Extracellular concentration” value was 9612 pg/mL in assay [1], 48243 pg/mL in assay [2], 4932 pg/mL in assay [3] (AvailOm dispersion) and 519 pg/mL in assay [3] (AvailOm).
For the compound “12-hydroxy-eicosapentaenoic acid [12-HEPE]”, the “Extracellular concentration” value in assay [1] was 124701 pg/mL; in assay [2], 79699 pg/mL; in assay [3] (AvailOm), 4413 pg/mL. In addition, the “abundance with dispersion formulation and/or bile acids compared to AvailOm without both (in words)” value in assay [3] is reported as “lower”.
For the compound RvD1, the “Extracellular concentration” value stood at 3626 pg/mL in assay [1], 4389 pg/mL in assay [2], 1863 pg/mL in assay [3] (AvailOm dispersion) and 598 pg/mL in assay [3] (AvailOm).
Regarding `CC/C=C\C[C@H](O)[C@@H](O)/C=C/C=C/C=C\C=C\[C@@H](O)CCCC(=O)O` [LXB5, lipoxin B5], the “Extracellular concentration” value in assay [3] (AvailOm dispersion) is 669042 pg/mL; in assay [3] (AvailOm), 2376 pg/mL.
On to `CCC=CCC=CCC=CCC=CC=CC(O)CCCC(=O)O` (stereo not shown) [5-HEPE, 5-hydroxy-eicosapentaenoic acid], for which the “Extracellular concentration” value in assay [1] turned out to be 395188 pg/mL; in assay [2] it was 989691 pg/mL; in assay [3] (AvailOm), 2253 pg/mL. Besides, the “abundance with dispersion formulation and/or bile acids compared to AvailOm without both (in words)” value in assay [3] is “lower”.
On to `CCCCC/C=C\C/C=C\C=C\C(O)C/C=C\CCCC(=O)O` (stereo not shown) [8-HETE, 8-hydroxy-eicosatetraenoic acid], for which the “Extracellular concentration” value worked out at 24207 pg/mL in assay [1] and 15941 pg/mL in assay [2]. Also, the “abundance with dispersion formulation and/or bile acids compared to AvailOm without both (in words)” value in assay [3] is listed as “lower”.
With `CC/C=C\C[C@H](O)[C@H](O)/C=C/C=C/C=C\C=C\[C@@H](O)C/C=C\CCC(=O)O` [RvD2], the “Extracellular concentration” value was 265 pg/mL in assay [1], 428 pg/mL in assay [2], 99 pg/mL in assay [3] (AvailOm dispersion) and 87 pg/mL in assay [3] (AvailOm).
For `CC/C=C\C[C@@H](O)\C=C/C=C/C=C/[C@H](O)C/C=C\C/C=C\CCC(=O)O` [AT-PD1 1, Aspirin-triggered PD1] the same measures were 4558 pg/mL, 10317 pg/mL, 247 pg/mL and 96 pg/mL.
In the case of `CCC(O)/C=C/C=C\C/C=C\C/C=C\C/C=C\CCCC(=O)O` (stereo not shown) [18-HEPE, 18-hydroxy-eicosapentaenoic acid], the “Extracellular concentration” value in assay [1] is 391397 pg/mL; in assay [2] it was 217725 pg/mL; in assay [3] (AvailOm) it was 24463 pg/mL. Besides, the “abundance with dispersion formulation and/or bile acids compared to AvailOm without both (in words)” value in assay [3] was “lower”.
Take `CC[C@@H](O)/C=C/C=C\C[C@@H](O)/C=C/C=C/C=C\[C@@H](O)CCCC(=O)O` [RvE1, resolvin E1]: the “Extracellular concentration” value in assay [1] came out at 5840 pg/mL; in assay [2] it was 28379 pg/mL; in assay [3] (AvailOm dispersion) it was 57826 pg/mL; in assay [3] (AvailOm) it was 88 pg/mL.
As to `CC/C=C\C/C=C\C[C@H](O)[C@H](O)/C=C/C=C/C=C\C/C=C\CCC(=O)O` [MaR2, maresin 2], the “Extracellular concentration” value in assay [1] was found to be 1522 pg/mL; in assay [2], 1233 pg/mL; in assay [3] (AvailOm dispersion), 197 pg/mL; in assay [3] (AvailOm), 120 pg/mL.

(Values after US20210393565A1, “PREPARATION FOR USE TO INCREASE THE FORMATION OF ONE OR MORE SPECIALIZED PRO-RESOLVING LIPID MEDIATORS (SPM)” (Evonik Operations GmbH, priority 2018, published 2021).)
